Assay results taken from US10206399B2, “Herbicidal composition comprising uracil compound as active ingredient” (Dongbu Farm Hannong Co., Ltd., priority 2012, dated 2019).
Like-named read-outs stand apart in the source and are kept apart here.

Tests used:
ryegrass = assay: Nonselective composition of 1 uracil compound and 2 herbicidally active compounds, plant mortality; format: in vivo; conditions: 480 h; 8 g ai/ha; read-out: ryegrass mortality (measured value)
Description: (§1) X is % damage by uracil compound (a) of formula 1 at the rate of application of p kg/ha; Y is % damage by conventional herbicidal compound (b) at the rate of application of q kg/ha; and E is the expected damage caused by compounds (a) and (b) at a rate of application of p and q kg/ha.
(§2) The expected activity for a given combination of two herbicides can be calculated using equation 1 above.

Echinochloa crus [1] = assay: Paddy field farming herbicidal composition test, plant mortality; format: in vivo; conditions: Echinochloa; 5 g/ha; read-out: Echinochloa crus mortality (measured value)
Description: as §1, §2

Abutilon theophrasti [2] = assay: whole plant or invertebrate
Description: as §1, §2

Ludwigia prostrate = assay: Paddy field farming herbicidal composition test, plant mortality; format: in vivo
Description: as §1, §2

wild amaranth = assay: Nonselective composition of 1 uracil compound and 2 herbicidally active compounds, plant mortality; format: in vivo; conditions: Amaranthus caudatus, 480 h; 8 g ai/ha; read-out: Wild amaranth mortality (measured value)
Description: as §1, §2

Echinochloa crus [3] = conditions: for Echinochloa crus mortality, measured value: 20 days after treatment; for plant mortality, measured value: Echinochloa crus
Description: as §1, §2

Xanthium spinosum = assay: whole plant or invertebrate
Description: as §1, §2

Alopecurus aequalis = assay: Dry field farming herbicidal composition test, plant mortality; format: in vivo; conditions: in % (unit assumed)
Description: as §1, §2

Digitaria sanguinalis [4] = conditions: for Digitaria sanguinalis mortality, measured value: 20 days after treatment
Description: as §1, §2

Abutilon theophrasti [5] = assay: Dry field farming herbicidal composition test, plant mortality; format: in vivo; conditions: Abutilon theophrasti, read-out: Abutilon theophrasti mortality, measured value
Description: as §1, §2

Digitaria sanguinalis [6] = assay: as above; format: in vivo
Description: as §1, §2

Monochoria vaginalis = assay: Paddy field farming herbicidal composition test, plant mortality; format: in vivo; conditions: Pontederia vaginalis, read-out: Monochoria vaginalis mortality (measured value)
Description: as §1, §2

Capsella bursapastoris = assay: Dry field farming herbicidal composition test, plant mortality; format: in vivo; conditions: in % (unit assumed)
Description: as §1, §2

Porippa islandica = assay: as above; format: in vivo
Description: as §1, §2

Aeschynomene indica [7] = assay: whole plant or invertebrate
Description: as §1, §2

Aeschynomene indica [8] = assay: Dry field farming herbicidal composition test, plant mortality; format: in vivo
Description: as §1, §2

Lamium amplexicaule = assay: as above; format: in vivo; conditions: in % (unit assumed)
Description: as §1, §2

rice plant = assay: Paddy field farming herbicidal composition test, plant mortality (crop)
Description: as §1, §2

wheat = assay: Dry field farming herbicidal composition test, plant mortality (crop)
Description: as §1, §2

Echinochloa crus [9] = assay: Dry field farming herbicidal composition test, plant mortality; format: in vivo
Description: as §1, §2

[10] = 480 h, read-out: Abutilon theophrasti mortality, measured value
[11] = 480 h, read-out: Xanthium spinosum mortality, measured value
[12] = read-out: plant mortality, measured value, 4 g/ha
[13] = read-out: plant mortality, measured value, 8 g/ha
[14] = read-out: plant mortality, measured value, 16 g/ha
[15] = 480 h, read-out: Aeschynomene indica mortality, measured value

In the case of `COC(=O)CCNC(=O)C(C)Sc1cc(-n2c(=O)cc(C(F)(F)F)n(C)c2=O)c(F)cc1Cl` (stereo not drawn) [Compound 36, 3-[{2-[2-chloro-5-(3,6-dihydro-3-methyl-2,6-dioxo-4-trifluoromethyl-1(2H)-pyrimidinyl)-4-fluorophenylthio]-1-oxopropyl}amino]propionic acid methyl ester], the pest or weed control at 8 g/ha (ryegrass) was 30%, the pest or weed control at 5 g/ha (Echinochloa crus [1]) was 0% and the mortality at 4 g/ha (Abutilon theophrasti [2]; [10]) was 11%. It also gave a mortality at 8 g/ha (Abutilon theophrasti [2]; [10]) of 38%, a mortality at 16 g/ha (Abutilon theophrasti [2]; [10]) of 51% and a mortality at 20 g/ha (Abutilon theophrasti [2]; [10]) of 58%. It also gave a mortality at 40 g/ha (Abutilon theophrasti [2]; [10]) of 100%, a mortality at 80 g/ha (Abutilon theophrasti [2]; [10]) of 100% and a pest or weed control at 4 g/ha (Abutilon theophrasti [2]; read-out: Data (measured value) Abutilon theophrasti, 4 g/ha) of 15%. For the same molecule, the pest or weed control at 8 g/ha (Abutilon theophrasti [2]; read-out: Data (measured value) Abutilon theophrasti, 8 g/ha) was 35%, the pest or weed control at 16 g/ha (Abutilon theophrasti [2]; read-out: Data (measured value) Abutilon theophrasti, 16 g/ha) was 47% and the pest or weed control at 20 g/ha (Abutilon theophrasti [2]; read-out: Data (measured value) Abutilon theophrasti, 20 g/ha) was 58%. The pest or weed control at 40 g/ha (Abutilon theophrasti [2]; read-out: Data (measured value) Abutilon theophrasti, 40 g/ha) was 100%, the pest or weed control at 80 g/ha (Abutilon theophrasti [2]; read-out: Data (measured value) Abutilon theophrasti, 80 g/ha) was 100% and the Ludwigia prostrate mortality (measured value) (Ludwigia prostrate; 5 g/ha) was 35%. For the same molecule, the Ludwigia prostrate mortality (measured value) (Ludwigia prostrate; 10 g/ha) was 55%, the pest or weed control at 8 g/ha (wild amaranth) was 40% and the “Data (measured value) Echinochloa crus” value (Echinochloa crus [3]; 4 g/ha) was 0. The “Echinochloa crus mortality, measured value” (shortened to “Echinochloa crus mortality”) (Echinochloa crus [3]; 4 g/ha) was 0%, the “plant mortality, measured value” (Echinochloa crus [3]; 4 g/ha) was 0 and the “Data (measured value) Echinochloa crus” value (Echinochloa crus [3]; 8 g/ha) was 5. The “Echinochloa crus mortality” value (Echinochloa crus [3]; 8 g/ha) was 5%, the “plant mortality, measured value” (Echinochloa crus [3]; 8 g/ha) was 5 and the “Echinochloa crus mortality” value (Echinochloa crus [3]; 16 g/ha) was 10%. The “Data (measured value) Echinochloa crus” value (Echinochloa crus [3]; 20 g/ha) was 17, the “Echinochloa crus mortality” value (Echinochloa crus [3]; 20 g/ha) was 17% and the “Data (measured value) Echinochloa crus” value (Echinochloa crus [3]; 40 g/ha) was 37. For the same molecule, the “Echinochloa crus mortality” value (Echinochloa crus [3]; 40 g/ha) was 37%, the “Data (measured value) Echinochloa crus” value (Echinochloa crus [3]; 80 g/ha) was 61 and the “Echinochloa crus mortality” value (Echinochloa crus [3]; 80 g/ha) was 61%. It also gave a mortality at 4 g/ha (Xanthium spinosum; [11]) of 21%, a mortality at 8 g/ha (Xanthium spinosum; [11]) of 42% and a mortality at 16 g/ha (Xanthium spinosum; [11]) of 56%. The mortality at 20 g/ha (Xanthium spinosum; [11]) was 51%, the mortality at 40 g/ha (Xanthium spinosum; [11]) was 90% and the mortality at 80 g/ha (Xanthium spinosum; [11]) was 100%. The pest or weed control at 4 g/ha (Xanthium spinosum; read-out: Data (measured value) Xanthium spinosum, 4 g/ha) was 24%, the pest or weed control at 8 g/ha (Xanthium spinosum; read-out: Data (measured value) Xanthium spinosum, 8 g/ha) was 59% and the pest or weed control at 16 g/ha (Xanthium spinosum; read-out: Data (measured value) Xanthium spinosum, 16 g/ha) was 79%. For the same molecule, the pest or weed control at 20 g/ha (Xanthium spinosum; read-out: Data (measured value) Xanthium spinosum, 20 g/ha) was 51%, the pest or weed control at 40 g/ha (Xanthium spinosum; read-out: Data (measured value) Xanthium spinosum, 40 g/ha) was 90% and the pest or weed control at 80 g/ha (Xanthium spinosum; read-out: Data (measured value) Xanthium spinosum, 80 g/ha) was 100%. It also gave a pest or weed control at 4 g/ha (Xanthium spinosum; [12]) of 25%, a pest or weed control at 8 g/ha (Xanthium spinosum; [13]) of 50% and a pest or weed control at 16 g/ha (Xanthium spinosum; [14]) of 70%. For the same molecule, the “Corn mortality, measured value” (corn; 1 g/ha) was 0, the “Corn mortality, measured value” (corn; 2 g/ha) was 0 and the “Corn mortality, measured value” (corn; 4 g/ha) was 1. The “Alopecurus aequalis mortality, measured value” (shortened to “Alopecurus aequalis mortality”) (Alopecurus aequalis; 1 g/ha) was 0, the “Alopecurus aequalis mortality” value (Alopecurus aequalis; 2 g/ha) was 0 and the “Alopecurus aequalis mortality” value (Alopecurus aequalis; 4 g/ha) was 10. For the same molecule, the “Data (measured value) Digitaria sanguinalis” value (Digitaria sanguinalis [4]; 4 g/ha) was 0, the “Digitaria sanguinalis mortality, measured value” (shortened to “Digitaria sanguinalis mortality”) (Digitaria sanguinalis [4]; 4 g/ha) was 0% and the “plant mortality, measured value” (Digitaria sanguinalis [4]; 4 g/ha, Digitaria sanguinalis) was 0. For the same molecule, the “Digitaria sanguinalis mortality” value (Digitaria sanguinalis [4]; 8 g/ha) was 5%, the “Data (measured value) Digitaria sanguinalis” value (Digitaria sanguinalis [4]; 16 g/ha) was 15 and the “Digitaria sanguinalis mortality” value (Digitaria sanguinalis [4]; 16 g/ha) was 16%. For the same molecule, the “Data (measured value) Digitaria sanguinalis” value (Digitaria sanguinalis [4]; 20 g/ha) was 19, the “Digitaria sanguinalis mortality” value (Digitaria sanguinalis [4]; 20 g/ha) was 19% and the “Data (measured value) Digitaria sanguinalis” value (Digitaria sanguinalis [4]; 40 g/ha) was 43. The “Digitaria sanguinalis mortality” value (Digitaria sanguinalis [4]; 40 g/ha) was 43%, the “Data (measured value) Digitaria sanguinalis” value (Digitaria sanguinalis [4]; 80 g/ha) was 71 and the “Digitaria sanguinalis mortality” value (Digitaria sanguinalis [4]; 80 g/ha) was 71%. For the same molecule, the pest or weed control at 1 g/ha (Abutilon theophrasti [5]; 1 g/ha) was 15%, the pest or weed control at 2 g/ha (Abutilon theophrasti [5]; 2 g/ha) was 35% and the pest or weed control at 4 g/ha (Abutilon theophrasti [5]; 4 g/ha) was 50%. The Digitaria sanguinalis mortality, measured value (Digitaria sanguinalis [6]; 4 g/ha) was 10%, the pest or weed control at 1 g/ha (Digitaria sanguinalis [6]; Digitaria sanguinalis, 1 g/ha, read-out: Digitaria sanguinalis mortality, measured value) was 0% and the pest or weed control at 2 g/ha (Digitaria sanguinalis [6]; Digitaria sanguinalis, 2 g/ha, read-out: Digitaria sanguinalis mortality, measured value) was 0%. The pest or weed control at 4 g/ha (Digitaria sanguinalis [6]; Digitaria sanguinalis, 4 g/ha, read-out: Digitaria sanguinalis mortality, measured value) was 10%, the pest or weed control at […] (Monochoria vaginalis; 2.5 g/ha) was 5% and the pest or weed control at 5 g/ha (Monochoria vaginalis; 5 g/ha) was 30%. The pest or weed control at 10 g/ha (Monochoria vaginalis; 10 g/ha) was 50%, the “Capsella bursapastoris mortality, measured value” (“Capsella bursapastoris mortality” below) (Capsella bursapastoris; 1 g/ha) was 5 and the “Capsella bursapastoris mortality” value (Capsella bursapastoris; 2 g/ha) was 25. For the same molecule, the “Capsella bursapastoris mortality” value (Capsella bursapastoris; 4 g/ha) was 45, the “Porippa islandica mortality, measured value” (“Porippa islandica mortality” below) (Porippa islandica; 1 g/ha) was 10 and the “Porippa islandica mortality” value (Porippa islandica; 2 g/ha) was 30. The “Porippa islandica mortality” value (Porippa islandica; 4 g/ha) was 55, the mortality at 4 g/ha (Aeschynomene indica [7]; [15]) was 26% and the mortality at 8 g/ha (Aeschynomene indica [7]; [15]) was 52%. The mortality at 16 g/ha (Aeschynomene indica [7]; [15]) was 69%, the mortality at 20 g/ha (Aeschynomene indica [7]; [15]) was 56% and the mortality at 40 g/ha (Aeschynomene indica [7]; [15]) was 100%. For the same molecule, the mortality at 80 g/ha (Aeschynomene indica [7]; [15]) was 100%, the pest or weed control at 4 g/ha (Aeschynomene indica [7]; read-out: Data (measured value) Aeschynomene indica, 4 g/ha) was 19% and the pest or weed control at 8 g/ha (Aeschynomene indica [7]; read-out: Data (measured value) Aeschynomene indica, 8 g/ha) was 46%. It also gave a pest or weed control at 16 g/ha (Aeschynomene indica [7]; read-out: Data (measured value) Aeschynomene indica, 16 g/ha) of 61%, a pest or weed control at 20 g/ha (Aeschynomene indica [7]; read-out: Data (measured value) Aeschynomene indica, 20 g/ha) of 56% and a pest or weed control at 40 g/ha (Aeschynomene indica [7]; read-out: Data (measured value) Aeschynomene indica, 40 g/ha) of 100%. For the same molecule, the pest or weed control at 80 g/ha (Aeschynomene indica [7]; read-out: Data (measured value) Aeschynomene indica, 80 g/ha) was 100%, the pest or weed control at 4 g/ha (Aeschynomene indica [7]; [12]) was 20% and the pest or weed control at 8 g/ha (Aeschynomene indica [7]; [13]) was 45%. For the same molecule, the pest or weed control at 16 g/ha (Aeschynomene indica [7]; [14]) was 65%, the Aeschynomene indica mortality, measured value (Aeschynomene indica [8]; 1 g/ha) was 10% and the Aeschynomene indica mortality, measured value (Aeschynomene indica [8]; 4 g/ha) was 45%. The pest or weed control at 1 g/ha (Aeschynomene indica [8]; Aeschynomene indica, 1 g/ha, read-out: Aeschynomene indica mortality, measured value) was 10%, the pest or weed control at 2 g/ha (Aeschynomene indica [8]; Aeschynomene indica, 2 g/ha, read-out: Aeschynomene indica mortality, measured value) was 25% and the pest or weed control at 4 g/ha (Aeschynomene indica [8]; Aeschynomene indica, 4 g/ha, read-out: Aeschynomene indica mortality, measured value) was 45%. The “Lamium amplexicaule mortality, measured value” (shortened to “Lamium amplexicaule mortality”) (Lamium amplexicaule; 1 g/ha) was 10, the “Lamium amplexicaule mortality” value (Lamium amplexicaule; 2 g/ha) was 30 and the “Lamium amplexicaule mortality” value (Lamium amplexicaule; 4 g/ha) was 50. The “Rice plant mortality (measured value)” value (rice plant; 5 g/ha) was 0, the “Rice plant mortality (measured value)” value (rice plant; 10 g/ha) was 1 and the “Wheat mortality, measured value” (wheat; 1 g/ha) was 0. The “Wheat mortality, measured value” (wheat; 2 g/ha) was 0, the “Wheat mortality, measured value” (wheat; 4 g/ha) was 1 and the Echinochloa crus mortality, measured value (Echinochloa crus [9]; 4 g/ha) was 5%. The pest or weed control at 1 g/ha (Echinochloa crus [9]; Echinochloa, 1 g/ha, read-out: Echinochloa crus mortality, measured value) was 0%, the pest or weed control at 2 g/ha (Echinochloa crus [9]; Echinochloa, 2 g/ha, read-out: Echinochloa crus mortality, measured value) was 0% and the pest or weed control at 4 g/ha (Echinochloa crus [9]; Echinochloa, 4 g/ha, read-out: Echinochloa crus mortality, measured value) was 5%.
